Biological target: T1, Gonadotropin-releasing hormone receptor (Homo sapiens, UniProt P30968)
T1 sequence (P30968 whole entry): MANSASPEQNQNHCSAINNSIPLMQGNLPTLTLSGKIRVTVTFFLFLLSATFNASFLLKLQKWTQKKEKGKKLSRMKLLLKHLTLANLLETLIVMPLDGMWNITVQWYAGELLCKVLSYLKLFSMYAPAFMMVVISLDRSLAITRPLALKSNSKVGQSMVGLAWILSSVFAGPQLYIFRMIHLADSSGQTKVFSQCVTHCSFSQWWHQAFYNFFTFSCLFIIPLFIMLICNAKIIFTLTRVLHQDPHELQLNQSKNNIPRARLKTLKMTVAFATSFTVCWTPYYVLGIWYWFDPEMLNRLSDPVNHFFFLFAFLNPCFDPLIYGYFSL
Assay: Binding affinity towards human gonadotropin-releasing hormone receptor expressed in HEK293 cells
Format: cell-based

How did the Ki turn out when COc1cccc(-c2c(C)n(Cc3c(F)cccc3F)c(=O)n([C@H](C)CN(C)Cc3ccccc3)c2=O)c1 was run?
Its Ki is 150 nM.

COc1cccc(-c2c(C)n(Cc3c(F)cccc3F)c(=O)n([C@@H](C)CN(C)CC3CC3)c2=O)c1 was tested. Which Ki did it give?
Its Ki is 7000 nM.

Which Ki does the source give for COc1cccc(-c2c(C)n(Cc3c(F)cccc3F)c(=O)n([C@H](C)CNCC3CC3)c2=O)c1 here?
Its Ki is 780 nM.

For COc1cccc(-c2c(C)n(Cc3c(F)cccc3F)c(=O)n([C@H](C)CNCc3cccc(F)c3)c2=O)c1, which Ki is on record?
Its Ki is 85 nM.

With COc1cccc(-c2c(C)n(Cc3c(F)cccc3F)c(=O)n([C@@H](C)CNCc3ccccc3)c2=O)c1 as the compound, how does the Ki read?
The Ki was 370 nM.

How did the Ki turn out when COc1cccc(-c2c(C)n(Cc3c(F)cccc3F)c(=O)n([C@H](C)CNCc3ccc(F)cc3)c2=O)c1 was run?
The Ki was 250 nM.

With COc1cccc(-c2c(C)n(Cc3c(F)cccc3F)c(=O)n([C@@H](C)CNCC(C)C)c2=O)c1 as the compound, how does the Ki read?
Its Ki is 1200 nM.

How did the Ki turn out when COc1cccc(-c2c(C)n(Cc3c(F)cccc3F)c(=O)n([C@@H](C)CNCC3CC3)c2=O)c1 was run?
The Ki was 1600 nM.

Which Ki does the source give for COc1cccc(-c2c(C)n(Cc3c(F)cccc3F)c(=O)n(C3CCN(Cc4ccccc4)C3)c2=O)c1 (stereo unspecified) here?
Its Ki is 280 nM.

How did the Ki turn out when COc1cccc(-c2c(C)n(Cc3c(F)cccc3F)c(=O)n([C@H](C)CN(C)CCc3ccccn3)c2=O)c1 was run?
The Ki was 20 nM.

How did the Ki turn out when COc1cccc(-c2c(C)n(Cc3c(F)cccc3F)c(=O)n([C@@H](C)CN(C)CCc3ccccn3)c2=O)c1 was run?
Its Ki is 1800 nM.

COc1cccc(-c2c(C)n(Cc3c(F)cccc3F)c(=O)n([C@H](C)CNCc3ccccc3F)c2=O)c1 was tested. Which Ki did it give?
Its Ki is 90 nM.

COc1cccc(CNC[C@@H](C)n2c(=O)c(-c3cccc(OC)c3)c(C)n(Cc3c(F)cccc3F)c2=O)c1 was tested. Which Ki did it give?
The Ki was 20 nM.

With COc1cccc(-c2c(C)n(Cc3c(F)cccc3F)c(=O)n([C@H](C)CNCC(C)C)c2=O)c1 as the compound, how does the Ki read?
Its Ki is 190 nM.

How did the Ki turn out when COc1cccc(-c2c(C)n(Cc3c(F)cccc3F)c(=O)n([C@@H](C)CN(C)Cc3ccccc3)c2=O)c1 was run?
The Ki was 2000 nM.

COc1cccc(-c2c(C)n(Cc3c(F)cccc3F)c(=O)n([C@@H](C)CNCc3ccccc3F)c2=O)c1 was tested. Which Ki did it give?
Its Ki is 550 nM.

COc1cccc(-c2c(C)n(Cc3c(F)cccc3F)c(=O)n(C3CCNC3)c2=O)c1 (stereo unspecified) was tested. Which Ki did it give?
Its Ki is 15000 nM.

With COc1cccc(-c2c(C)n(Cc3c(F)cccc3F)c(=O)n([C@H](C)CN(C)CC3CC3)c2=O)c1 as the compound, how does the Ki read?
Its Ki is 590 nM.

How did the Ki turn out when COc1ccc(CNC[C@@H](C)n2c(=O)c(-c3cccc(OC)c3)c(C)n(Cc3c(F)cccc3F)c2=O)cc1 was run?
Its Ki is 720 nM.

With COc1cccc(-c2c(C)n(Cc3c(F)cccc3F)c(=O)n([C@H](C)CNC3CCCC3)c2=O)c1 as the compound, how does the Ki read?
Its Ki is 430 nM.

For COc1cccc(-c2c(C)n(Cc3c(F)cccc3F)c(=O)n([C@H](C)CNCc3ccccc3)c2=O)c1, which Ki is on record?
Its Ki is 75 nM.

With COc1cccc(-c2c(C)n(Cc3c(F)cccc3F)c(=O)n(C3CCN(CCc4ccccn4)C3)c2=O)c1 (stereo unspecified) as the compound, how does the Ki read?
The Ki was 8300 nM.

COc1cccc(-c2c(C)n(Cc3c(F)cccc3F)c(=O)n([C@@H](C)CNC3CCCC3)c2=O)c1 was tested. Which Ki did it give?
The Ki was 950 nM.

COc1cccc(-c2c(C)n(Cc3c(F)cccc3F)c(=O)n(C[C@H](C)N(C)CCc3ccccn3)c2=O)c1 was tested. Which Ki did it give?
The Ki was 5 nM.

For COc1cccc(-c2c(C)n(Cc3c(F)cccc3F)c(=O)n([C@H](C)CNCc3ccccc3C)c2=O)c1, which Ki is on record?
The Ki was 70 nM.

COc1cccc(-c2c(C)n(Cc3c(F)cccc3F)c(=O)n([C@@H](C)CNCc3ccccc3C)c2=O)c1 was tested. Which Ki did it give?
The Ki was 400 nM.
